The values that follow come from ChEMBL document CHEMBL1201862, “PubChem BioAssay data set” (2004).

Experiment [1] is described as follows: Luminescence Cell-Based Dose Retest to Confirm Inhibitors of Cancer Stem Cells. [Related pubchem assays (depositor defined):AID2717, AID2721]. It counts as functional. Conditions: Homo sapiens.
Experiment [2] is described as follows: viability loss of HMLE_sh_eGFP cells – cell-based, luminescence, counter-screen for HMLE_sh_ECad selective toxicity project, dose response (AID 463074).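 Also: HMLE human mammary epithelial cells expressing control shRNA against eGFP.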 It counts as functional, Homo sapiens. For orientation: Counterscreens check selectivity or assay interference.
Experiment [3] is described as follows: Luminescence Cell-Based Dose Confirmation HTS to Identify Activators of 5'UTR Stem-Loop Driven Alpha-Synuclein mRNA Translation in H4 Neuroglioblastoma Cells. [Related pubchem assays: 1829 (Project Summary), 1814 (Primary HTS)]. It counts as functional.
Experiment [4] can be described thus: Luminescence Cell-Based Dose Response HTS to Identify Activators of Luciferase Translation or Activity in H4 […] Cells. [Related pubchem assays: 1829 (Project Summary), 1814 (Primary HTS)]. It counts as functional.
Experiment [5] concerns H4. Put plainly: Luminescence Cell-Based Dose Response HTS to Identify Activators of 5'UTR Stem-Loop Driven Prion Protein mRNA Translation in H4 Neuroglioblastoma Cells. [Related pubchem assays: 1829 (Project Summary), 1814 (Primary HTS)]. To be noted: Homo sapiens. It counts as functional.
Experiment [6] concerns A-375. Put plainly: MITF: Counter assay: A375 proliferation Measured in Cell-Based System Using Plate Reader - 2084-03_Inhibitor_Dose_DryPowder_Activity. [Related pubchem assays (depositor defined):AID488944]. It counts as functional. Conditions: Homo sapiens.
For experiment [7], the system named is A-375. In words: proliferation inhibition in MITF-low A375 cells – cell-based, cherry-pick samples, set 2, counter-screen for MITF modulator project, dose response (AID 540335). It counts as functional. Conditions: Homo sapiens.
Experiment [8] can be described thus: viability of uninfected HEp-2 cells – cell-based, HTS, cytotoxicity control for RSV inhibitor project, dose response (AID 2410). To be noted: human respiratory syncytial virus. It counts as functional.
For experiment [9], the system named is Vero. In words: cells. It counts as functional, cell-based. Conditions: Chlorocebus sabaeus.
Experiment [10] can be described thus: cells.
Experiment [11] deals with BJ. Put plainly: BJ-TERT fibroblast viability loss – cell-based, RAS-independent, luminescence, dose response (AID 1933). It counts as functional. To be noted: Homo sapiens.
Experiment [12] deals with BJ. Put plainly: cells. It counts as functional, cell-based. To be noted: Homo sapiens.
The target of experiment [13] is Luciferin 4-monooxygenase (Photinus pyralis, UniProt P08659). Put plainly: inhibition of purified Photinus pyralis luciferase – biochemical, luminescence, dose response (AID 1891).
Sequence of Luciferin 4-monooxygenase (P08659 whole entry): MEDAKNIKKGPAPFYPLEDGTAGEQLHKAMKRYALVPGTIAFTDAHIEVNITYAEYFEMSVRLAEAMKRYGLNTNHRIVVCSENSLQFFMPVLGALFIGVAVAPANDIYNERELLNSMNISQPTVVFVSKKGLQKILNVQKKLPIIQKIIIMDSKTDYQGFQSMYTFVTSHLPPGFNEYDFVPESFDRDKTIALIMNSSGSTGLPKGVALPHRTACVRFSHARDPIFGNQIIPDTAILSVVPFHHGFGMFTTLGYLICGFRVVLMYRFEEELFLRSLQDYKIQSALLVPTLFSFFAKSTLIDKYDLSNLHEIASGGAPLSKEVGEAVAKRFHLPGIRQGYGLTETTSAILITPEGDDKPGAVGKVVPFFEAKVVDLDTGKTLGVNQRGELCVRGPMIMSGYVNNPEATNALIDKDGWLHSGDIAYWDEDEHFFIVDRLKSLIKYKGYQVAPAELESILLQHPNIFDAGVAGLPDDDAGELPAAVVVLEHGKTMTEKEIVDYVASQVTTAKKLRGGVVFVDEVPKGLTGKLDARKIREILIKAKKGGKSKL
Experiment [14] is described as follows: Luminescence Cell-Based Dose Confirmation HTS to Identify Inhibitors of Platelet Dense Granule Release. [Related pubchem assays: 1663 (Primary HTS), 1678 (Summary of Project)]. It counts as functional.
Experiment [15] concerns BJ. Put plainly: BJ-TERT-LT-ST fibroblast viability loss – cell-based, RAS-independent, luminescence, dose response (AID 1935).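 Also: BJ fibroblasts immortalized with TERT plus LT and ST oncogenes.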 It counts as functional. Conditions: Homo sapiens.
The nature of experiment [16]: DRD fibroblast viability loss – cell-based, non-viral oncogenic, luminescence, dose response (AID 1934). It counts as functional. Conditions: Homo sapiens.
Experiment [17] relates to Jurkat. Put plainly: blockers of NF-kB activation in T cells – Jurkat, luciferase reporter, luminescence, B- and T-cell, dose response (AID 489004).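 Also: NF-kB luciferase reporter Jurkat cells stimulated with PMA plus ionomycin.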 It counts as functional, cell-based. To be noted: Homo sapiens. For orientation: A reporter such as luciferase makes a cellular process visible.
A short description of experiment [18]: HEK-293T viability loss, compound-treated – cell-based, uHTS hits, cytotoxicity control for B/T-cell NF-kB inhibitor project, dose response (AID 489019).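 Also: IC50 reflects cytotoxicity as loss of cell viability.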 It counts as functional.
Experiment [19] has as its target Heat shock protein HSP 90-alpha (Homo sapiens, UniProt P07900). It counts as functional, organism-based.
For experiment [20], the system named is BJ. In words: growth inhibition of engineered Ras-driven BJ cells – cell-based, alamar blue fluorescence, cherrypicked samples, dose response (AID 2631).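 Also: confirmatory dose-response assay in RAS-dependent BJ fibroblasts engineered with TERT, LT and ST, with cytotoxicity read by fluorescence.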 It counts as functional. To be noted: Homo sapiens.
Experiment [21] has as its system INS1. Put plainly: INS-1E survival protection against cytokine death – cell-based, luminescence, retest, dose response (AID 449756).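 Also: cell death triggered by IL-1 beta plus TNF-alpha plus IFN-gamma mixture; protective hits raise ATP signal compared with cytokine alone wells.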 It counts as functional. To be noted: Rattus norvegicus.
Experiment [22] is described as follows: reduction of Shn3 3'UTR-driven luciferase in osteoblasts – cell-based, Clone20 osteoblasts, firefly luciferase, cherry-picked, dose response (AID 624132).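 Also: firefly luciferase luminescence from reporter carrying the Shn3 3'UTR in osteoblasts.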 It counts as functional.
Experiment [23] is described as follows: loss of viability in HepG2 cells – cell-based, CellTiter-Glo, cherry-picked, cytotoxicity control for Shn3 inhibitor project, dose response (AID 624134). It counts as functional. For orientation: In ATP-based viability assays light output follows the ATP content of the culture.
Experiment [24] deals with Photoreceptor-specific nuclear receptor (Homo sapiens, UniProt Q9Y5X4). It counts as functional, cell-based.
Sequence of Photoreceptor-specific nuclear receptor (Q9Y5X4 whole entry, the tested form may be a part): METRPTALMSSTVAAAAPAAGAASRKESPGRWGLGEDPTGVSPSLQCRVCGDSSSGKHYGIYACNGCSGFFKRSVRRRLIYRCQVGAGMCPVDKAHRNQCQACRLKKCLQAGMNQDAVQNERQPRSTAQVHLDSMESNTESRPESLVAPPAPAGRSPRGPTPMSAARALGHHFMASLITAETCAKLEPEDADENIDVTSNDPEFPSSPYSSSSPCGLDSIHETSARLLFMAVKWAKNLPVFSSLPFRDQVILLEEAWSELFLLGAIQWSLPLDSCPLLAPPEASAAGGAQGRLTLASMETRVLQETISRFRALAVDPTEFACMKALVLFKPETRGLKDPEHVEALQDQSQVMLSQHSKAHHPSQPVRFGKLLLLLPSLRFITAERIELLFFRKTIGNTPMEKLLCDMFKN
Experiment [25] in a line: blockers of HIV-1 envelope-mediated cell-cell fusion – cherry-pick, dose response (AID 652057). It counts as functional, cell-based.
Experiment [26] in a line: viability loss in CEM21 cells – cell-based, CellTiter-Glo luminescence, cherry-picked, cytotoxicity control for viral fusion inhibitor project, dose response (AID 652042).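 Also: potency for signal decrease meaning cytotoxicity.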 It counts as functional.
Experiment [27] is described as follows: blockers of HIV-1 ZM109 envelope-driven cell-cell fusion – HeLa effector, CEM target cells, luciferase, cherry-pick, dose response (AID 652058).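 Also: luciferase signal from HIV-1 Env mediated cell-cell fusion of effector and target cells.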 It counts as functional, cell-based.
Experiment [28] concerns the target Paired box protein Pax-8 (Homo sapiens, UniProt Q06710). In words: PAX8 transcriptional activity inhibition in RMG-I – RMG-I cells, luciferase, cherry-pick, dose response (AID 687027).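 Also: luciferase reporter driven by Pax8 target thyroperoxidase promoter measured by SteadyGlo luminescence.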 It counts as functional, cell-based.
A short description of experiment [29]: off-target signal loss in HeLa-CEM21 co-culture – HeLa F-luc CTL cells, cherry-picked, counter-screen for HIV-1 Env fusion inhibitor project, dose response (AID 652040).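 Also: potency for signal decrease marking cytotoxic or nonspecific inhibition.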 It counts as functional, cell-based.
The nature of experiment [30]: HIV-1 AD8 envelope cell-cell fusion blockers – cherry-pick, dose response (AID 652062).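 Also: luciferase signal from cell-cell fusion driven by HIV-1 clade B AD8 Env; potency is for inhibitors of fusion seen as a drop in luminescence.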 It counts as functional, cell-based.
Experiment [31] in a line: A549 cell cytotoxicity, dose response, cytotoxicity control, plate reader, cherry-pick, antagonist series (AID 743412). It counts as functional, cell-based.
The nature of experiment [32]: toxicity toward HepG2 liver cells – cell-based, plate reader, cherry-pick, antagonist series, cytotoxicity control, dose response (AID 743416). It counts as functional.
Experiment [33] is described as follows: blockers of bursicon-stimulated LGR2 cAMP reporter – cell-based, HEK293, CRE-luciferase reporter, cherry pick, set 2, dose response (AID 743343).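 Also: transfected cells were stimulated with diluted bursicon conditioned medium after compound addition.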 It counts as functional.
Experiment [34] is described as follows: general cell-killing toxicity readout – plate reader, dry powder samples, cytotoxicity control for PAX8 inhibitor project, dose response (AID 743021). It counts as functional, cell-based.
Experiment [35] can be described thus: blockade of melanocortin 4 receptor signaling – cell-based, plate reader, cherry pick, counter-screen for LGR2 antagonist project, dose response (AID 743444).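 Also: transfected HEK 293 cells stimulated with alpha-MSH peptide; potency of inhibitors of the alpha-MSH evoked signal.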 It counts as functional.
A short description of experiment [36]: viability loss in HEK293 cells – cell-based, plate reader, cherry-picked samples, cytotoxicity control, dose response (AID 743446). It counts as functional.

Calls of active or inactive are those of the source.

Sequence of Paired box protein Pax-8 (Q06710 whole entry, the tested form may be a part): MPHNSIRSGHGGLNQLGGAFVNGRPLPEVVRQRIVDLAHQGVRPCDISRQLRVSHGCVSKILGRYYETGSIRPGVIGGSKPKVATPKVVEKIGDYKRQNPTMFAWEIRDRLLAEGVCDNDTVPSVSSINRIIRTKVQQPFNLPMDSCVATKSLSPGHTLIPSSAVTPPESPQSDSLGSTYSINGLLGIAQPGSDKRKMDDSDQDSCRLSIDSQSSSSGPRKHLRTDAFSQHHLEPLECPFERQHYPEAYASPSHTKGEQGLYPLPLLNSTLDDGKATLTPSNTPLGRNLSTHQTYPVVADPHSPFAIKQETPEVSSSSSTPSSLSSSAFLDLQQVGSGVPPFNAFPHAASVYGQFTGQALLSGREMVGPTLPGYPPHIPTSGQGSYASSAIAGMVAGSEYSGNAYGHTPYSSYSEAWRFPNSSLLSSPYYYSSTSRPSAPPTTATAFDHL

In the case of `O=C(c1cc(-c2ccc(O)cc2)on1)N1CCN(c2ccccc2)CC1`, the AC50 is 2890 nM (active) in [1] and 23100 nM (active) in experiment [2].
Take `Cc1cnn(C(S)=NCCc2ccccc2)c1`: the EC50 was 27300 nM (active) in [3], 25400 nM (active) in experiment [4] and > 120000 nM (not active) in experiment [5]. Moreover, the concentration at half-maximal activity (AC50) in [6] and in [7] was > 35000 nM (active) in each case.
Consider `Cc1cccc(NC(=O)C(C)Sc2nc3ccccc3c(=O)n2CCCN2CCOCC2)c1` (stereo unspecified), for which, in experiment [8], the CC50 is 30800 nM (active). Besides, the IC50 is 23400 nM (active) in [9] and 26800 nM (active) in experiment [10].
Consider `COc1ccccc1C(=O)Nc1nc2ccccc2[nH]1`, for which the EC50 is 802 nM (inconclusive) in experiment [11]; 607 nM (inconclusive) in experiment [12]; 159 nM (active) in experiment [13]; 196 nM (active) in experiment [14]; 1830 nM (inconclusive) in [15]; 734 nM (active) in experiment [16]. Moreover, in experiment [20], the EC50 is > 133000 nM (inactive). The 50% inhibitory concentration (IC50) is 570 nM (active) in [17], > 80000 nM (inactive) in [18] and 3250 nM (active) in [24]. Moreover, the concentration at half-maximal activity (AC50) in [19] is 555 nM (active); in [21], 1690 nM (active); in experiment [22] it was 868 nM (active); in [23], 6570 nM (active); in experiment [25], 879 nM (active); in experiment [26] it was 1710 nM (active). The AC50 in experiment [27] was 6080 nM (active); in experiment [28] it was 2040 nM (active); in [29] it was 2570 nM (active); in [30], 1410 nM (active); in experiment [31], 1290 nM (active); in experiment [32], 6260 nM (active). In addition, the AC50 in experiment [33] is 217 nM (active); in [34], 1790 nM (active); in experiment [35], 253 nM (active); in [36] it was 2330 nM (active).

For orientation: AC50 means the concentration at which the activity in the assay is half-maximal. The term EC50 denotes the midpoint of the concentration-response curve. The term CC50 denotes the concentration giving 50% cytotoxicity. One may read the IC50 as the point on the concentration scale where inhibition reaches its midpoint.
